Experimental data: US12629415B2, “Vaccine adjuvants” (THE PROVOST, FELLOWS, FOUNDATION SCHOLARS, AND THE OTHER …, priority 2018, dated 2026)
“Also recorded” adds a separate entry of the source.

Legend:
[1] = tested on: bovine PBMCs; assay: Real-time PCR of gene expression in bovine PBMCs; format: cell-based, cattle; settings: for IFN-α gene expression / IFN-β gene expression: vs unstimulated cells; for ISG-15 expression: after 12 hours (text), 6 hours (FIG. 23 legend)
Procedure: RNA extraction was conducted using Trizol and an RNeasy Plus Mini Kit (Qiagen Ltd). Tissue culture plates of stimulated cells were spun and supernatants were extracted while the remaining adherent cells were lysed using Trizol. Chloroform (200 μl per 1 ml of Trizol) was then added to the cell lysates and mixed vigorously before being centrifuged at 12000 g for 15 minutes at 4° C. The resulting aqueous layer of RNA was transferred to another tube containing 1 volume of ethanol. The mixture was then added to an RNeasy column and processed according to the manufacturer's instructions (Qiagen Ltd). After rigorous purification, the RNA was isolated and quantified using NanoDrop ND-1000 UV-Vis Spectrophotometer (NanoDrop Technologies Inc.). Finally the samples were stored at −80° C.
RNA was converted to cDNA using a High-Capacity cDNA Reverse transcription Kit (Applied Biosystems). Components needed for reverse transcriptase included RNA, RT 5× buffer, RNase Out, random hexamers, dNTP's and reverse transcriptase. The process was conducted under the following conditions: 25° C. for 10 minutes, 42° C. for 60 minutes, 95° C. for 3 minutes and hold at 4° C. The resulting cDNA was stored at −20° C.
Using, SYBR Green intercalating dye (Applied Biosystems Ltd), qRT-PCR was performed using Applied Biosystems 7500 Fast Real-Time PCR System. Each well on the qRT-PCR plate was comprised of SYBR Green dye, nuclease free H2O, cDNA, forward and reverse primers. Two negative controls were included to ensure no contamination was present. The cycle parameters of the process were: 95° C. for 20 seconds, 40 cycles at 95° C. for 3 seconds, 60° C. for 30 seconds followed by the dissociation steps which were: 95° C. for 15 seconds, 60° C. for 60 seconds, 95° C. for 15 seconds and 60° C. for 15 seconds. The Ct (threshold cycle) values from both the target and reference gene were used to measure the concentration of the target gene in the PCR reaction.

[2] = tested on: PBMCs or CBMCs; assay: Quantitative RT-PCR of TNFα, IFNα and CXCL10 mRNA; format: cell-based, human; settings: CBMCs vs PBMCs
Procedure: Poly(I:C) (5 μg/ml) (Invivogen), Poly(dA:dT) (5 μg/ml) (Sigma-Aldrich), 2′3′ cGAMP (10 μg/ml), 5′ triphosphate double stranded RNA (5′ ppp dsRNA) (2.5 μg/ml) and HSV-60 (2 μg/ml) (all from Invivogen) were transfected into PBMCs or CBMCs using TransIT-X2 (Mirus).
Quantitative RT-PCR—Total RNA from PBMCs or CBMCs was extracted using trizol extraction as previously described (16) and was reverse transcribed using MMLV Reverse Transcriptase (Promega) according to the manufacturer's protocol. This cDNA served as template for amplification of target genes, along with the ‘housekeeping’ gene βActin, by real-time PCR with SensiFast SYBR Green (Bioline) to determine the relative amounts of CXCL10, IFNα and TNFα mRNA. The ABI 7900HT system (Applied Biosystems) was used for real-time PCR, and the cycling threshold method (2^−(ΔΔCt)) was used for relative quantification by comparative method after normalization to βActin expression.

[3] = polydA:dT 1 μg/ml, 6 hours, listed as PolydA:dT
[4] = polydA:dT 1 μg/ml, 6 hours, listed as poly(dA:dT)
[5] = polydA:dT 1 μg/ml, 6 hours, listed as polydA:dT

Substance: poly(deoxyadenylic-thymidylic) acid [Poly(dA:dT)]
- IFI-16 expression ([1]; polydA:dT 1 μg/ml transfected, 12 hours): enhanced in response to polydA:dT; also recorded: regulates IFI-16 expression; also recorded: IFI-16 expression is enhanced by polydA:dT
- IL-18 expression ([1]; polydA:dT 1 μg/ml, 6 hours): enhanced by polydA:dT; also recorded: increased in response to polydA:dT after 6 hours; also recorded: can drive enhanced IL-18 expression; also recorded: increased the expression of IL-18; also recorded: robust driver of IL-1β secretion and IL-18 expression in cattle
- IFN-α gene expression [1, 3]: increases type I IFN expression by bovine PBMCs; also recorded: enhanced IFN-α, IFN-β and ISG-15 expression by bovine PBMCs
- IFN-β gene expression [1, 3]: increases type I IFN expression by bovine PBMCs; also recorded: enhanced IFN-α, IFN-β and ISG-15 expression by bovine PBMCs
- IFN-α gene expression [1, 4]: enhanced type 1 interferon secretion
- IFN-β gene expression [1, 4]: enhanced type 1 interferon secretion
- IFN-α gene expression [1, 5]: enhanced after 6 hours in comparison to unstimulated cells; also recorded: increases IFN-α and IFN-β expression in bovine PBMCs
- IFN-β gene expression [1, 5]: enhanced after 6 hours in comparison to unstimulated cells; also recorded: increases IFN-α and IFN-β expression in bovine PBMCs
- ISG-15 expression ([1]; polydA:dT 1 μg/ml, listed as PolydA:dT): enhanced IFN-α, IFN-β and ISG-15 expression by bovine PBMCs
- ISG-15 expression ([1]; polydA:dT 1 μg/ml, listed as polydA:dT): increased in response polydA:dT after 12 hours; also recorded: ISG-15 expression is increased in bovine PBMCs
- CXCL10 mRNA expression ([2]; 4 h): no inhibition of transcription
- IFNα mRNA expression ([2]; 24 h): no inhibition of transcription
- TNFα mRNA expression ([2]; CNA 4 h, LPS 2 h): no significant difference in TNFα levels
